Results on 5 molecules are retold here after ChEMBL document CHEMBL1150007, “Novel indolactam-based inhibitors of matrix metalloproteinases” (Bioorg Med Chem Lett, 1995).

One assay addresses T1, Interstitial collagenase (Homo sapiens, UniProt P03956).
T1 sequence (P03956 whole entry): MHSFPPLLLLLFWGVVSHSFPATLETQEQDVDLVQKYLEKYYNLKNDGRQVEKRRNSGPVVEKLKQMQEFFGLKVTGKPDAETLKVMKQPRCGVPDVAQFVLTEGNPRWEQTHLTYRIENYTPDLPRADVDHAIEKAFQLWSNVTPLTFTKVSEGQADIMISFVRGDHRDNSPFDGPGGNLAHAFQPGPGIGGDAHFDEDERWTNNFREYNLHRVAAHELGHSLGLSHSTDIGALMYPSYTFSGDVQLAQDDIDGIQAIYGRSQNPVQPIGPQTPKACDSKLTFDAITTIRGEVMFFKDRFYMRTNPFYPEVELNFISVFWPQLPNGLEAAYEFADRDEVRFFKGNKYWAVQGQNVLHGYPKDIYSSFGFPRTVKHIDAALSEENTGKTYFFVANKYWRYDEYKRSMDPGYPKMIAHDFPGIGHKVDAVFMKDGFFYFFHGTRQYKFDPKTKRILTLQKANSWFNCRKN
Kind of assay: Inhibition of human fibroblast collagenase, matrix metalloprotease-1.

For a further assay, the target named is Neutrophil collagenase (Homo sapiens, UniProt P22894). Kind of assay: Inhibition of human Matrix metalloprotease-8.
Assay [1] addresses 72 kDa type IV collagenase (Homo sapiens, UniProt P08253). The assay can be described thus: Inhibition of human […], matrix metalloprotease-2.
Another assay concerns the target T2, Matrilysin (Homo sapiens, UniProt P09237).
T2 sequence (P09237 whole entry): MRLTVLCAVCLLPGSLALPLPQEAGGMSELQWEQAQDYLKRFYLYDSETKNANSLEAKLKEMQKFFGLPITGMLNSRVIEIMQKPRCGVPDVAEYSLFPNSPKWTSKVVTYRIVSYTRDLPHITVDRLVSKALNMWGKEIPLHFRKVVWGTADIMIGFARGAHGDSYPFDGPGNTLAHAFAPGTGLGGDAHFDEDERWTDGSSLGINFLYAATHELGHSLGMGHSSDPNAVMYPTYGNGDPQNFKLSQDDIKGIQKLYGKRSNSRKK
The assay can be described thus: Inhibition of Matrix metalloprotease-7.

In another assay the target is Stromelysin-1 (Homo sapiens, UniProt P08254). The assay can be described thus: Inhibition of human fibroblast stromelysin, matrix metalloprotease-3.
Stromelysin-1, sequence (P08254 whole entry): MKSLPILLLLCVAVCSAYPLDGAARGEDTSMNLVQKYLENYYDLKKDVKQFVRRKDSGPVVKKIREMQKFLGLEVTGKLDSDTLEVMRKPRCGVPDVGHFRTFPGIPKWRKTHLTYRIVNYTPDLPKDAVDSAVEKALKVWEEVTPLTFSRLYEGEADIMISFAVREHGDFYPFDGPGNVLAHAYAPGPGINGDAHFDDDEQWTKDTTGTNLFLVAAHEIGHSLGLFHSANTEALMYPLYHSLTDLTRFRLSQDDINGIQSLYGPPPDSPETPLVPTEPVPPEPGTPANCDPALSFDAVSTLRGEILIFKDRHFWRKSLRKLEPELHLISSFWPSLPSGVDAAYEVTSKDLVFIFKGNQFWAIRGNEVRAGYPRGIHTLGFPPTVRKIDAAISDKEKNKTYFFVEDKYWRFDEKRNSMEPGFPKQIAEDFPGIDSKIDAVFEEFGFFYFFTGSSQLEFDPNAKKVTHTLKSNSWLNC

72 kDa type IV collagenase, sequence (P08253 whole entry): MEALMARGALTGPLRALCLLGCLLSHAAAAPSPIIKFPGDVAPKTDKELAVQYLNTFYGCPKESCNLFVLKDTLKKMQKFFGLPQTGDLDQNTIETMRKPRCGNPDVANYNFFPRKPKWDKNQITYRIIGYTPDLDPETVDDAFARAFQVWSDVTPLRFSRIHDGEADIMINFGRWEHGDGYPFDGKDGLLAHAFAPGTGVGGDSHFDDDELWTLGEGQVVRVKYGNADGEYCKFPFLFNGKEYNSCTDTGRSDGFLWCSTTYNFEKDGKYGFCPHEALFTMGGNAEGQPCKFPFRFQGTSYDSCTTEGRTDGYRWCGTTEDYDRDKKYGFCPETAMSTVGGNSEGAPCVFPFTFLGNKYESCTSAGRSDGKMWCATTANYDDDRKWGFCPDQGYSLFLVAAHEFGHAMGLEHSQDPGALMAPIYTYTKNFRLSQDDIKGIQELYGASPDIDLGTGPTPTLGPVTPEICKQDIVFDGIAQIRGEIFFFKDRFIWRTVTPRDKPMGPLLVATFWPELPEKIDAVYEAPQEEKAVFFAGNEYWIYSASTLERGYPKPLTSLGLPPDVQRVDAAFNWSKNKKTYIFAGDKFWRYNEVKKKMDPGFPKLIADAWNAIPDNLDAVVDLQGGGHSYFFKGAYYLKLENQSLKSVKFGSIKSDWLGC
Neutrophil collagenase, sequence (P22894 whole entry): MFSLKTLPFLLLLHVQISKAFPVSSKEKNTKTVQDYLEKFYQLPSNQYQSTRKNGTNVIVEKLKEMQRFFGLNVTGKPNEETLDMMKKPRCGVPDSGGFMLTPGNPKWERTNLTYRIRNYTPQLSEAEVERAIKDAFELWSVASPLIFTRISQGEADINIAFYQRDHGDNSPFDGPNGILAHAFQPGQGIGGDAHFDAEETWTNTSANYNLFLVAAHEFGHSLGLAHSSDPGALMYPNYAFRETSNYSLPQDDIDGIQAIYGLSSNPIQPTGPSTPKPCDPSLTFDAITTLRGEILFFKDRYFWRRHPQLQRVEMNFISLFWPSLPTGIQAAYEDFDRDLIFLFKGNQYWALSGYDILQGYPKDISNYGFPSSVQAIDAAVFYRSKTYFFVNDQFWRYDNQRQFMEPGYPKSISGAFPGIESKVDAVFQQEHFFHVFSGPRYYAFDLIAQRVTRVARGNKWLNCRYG

For the molecule `CCCCCCNC(=O)[C@H](Cc1c[nH]c2ccccc12)NC(=O)[C@@H](CC(=O)NO)CC(C)C`, the Ki – broadly, a measure of affinity in units of concentration, obtained from inhibition or displacement – amounted to 3 nM at Interstitial collagenase, 0.5 nM on Neutrophil collagenase and 0.3 nM in assay [1].
In the case of `CCCCCCNC(=O)[C@H](Cc1c[nH]c2ccccc12)NC(=O)[C@@H](CC(=O)O)CC(C)C`, the Ki is 171 nM on Interstitial collagenase, greater than 620 nM on Matrilysin, 163 nM at Neutrophil collagenase and 472 nM in assay [1].
As for `CC(C)C[C@H](CP(=O)(O)CSc1ccc2ccccc2n1)C(=O)N[C@H]1Cc2cn(c3ccccc23)CCCCCCNC1=O`, the Ki is 5 nM on Interstitial collagenase, 806 nM at Stromelysin-1, 4 nM on Neutrophil collagenase and 14 nM in assay [1].
The corresponding values for `CCCCCCNC(=O)[C@H](Cc1c[nH]c2ccccc12)NC(=O)[C@H](CC(C)C)CP(=O)(O)CSc1ccc2ccccc2n1` are 432 nM, 6580 nM, 102 nM and 300 nM.
Take `CNC(=O)[C@H](Cc1ccccc1)NC(=O)[C@H](CC(C)C)[C@H](CSc1cccs1)C(=O)O`: the Ki at Interstitial collagenase is 1500 nM.
